From US9308238B2, “Compositions and methods for modulating EMT and uses thereof” (Whitehead Institute for Biomedical Research, priority 2010, dated 2016)

Tests used:
Type in all cases: cell-based, human
HMLE^24+ cells [1] = assay: Flow cytometry of CD44/CD24, HMLE^24+ cells after 14 day treatment; conditions: control 0.2%
Experimental: (§1) FIGS. 5A-5H. Concomitant stimulation of Wnt and TGF-beta pathways allows HMLE^24+ cells to enter into a mesenchymal and SC-like state. (FIG. 5A) RT-PCR: N-Cadherin, Zeb1 and Zeb2, L32 was loading control, n=3. Prior RNA isolation, HMLE^24+-shGFP or -shSFRP1 (stable knockdown of SFRP1, FIG. 12A) cells were treated for 3 days with daily doses of indicated factors: anti-DKK1 antibody (10 μg/ml), anti-E-Cadherin antibody (1 μg/ml), TGF-beta 1 (5 ng/ml), Wnt5a (250 ng/ml), (FIG. 5B) Brightfield microscopy: images of control, TGF-beta- and iEMT-cocktail treated HMLE^24+ cells after 14 days of treatment as indicated (see also FIG. 12D). (FIG. 5C) RT-PCR: Zeb1, Zeb2, E-Cadherin and N-Cadherin, L32 was loading control, n=3. After 14 day treatment, cells were expanded in absence of further stimulation for 4 passages. […] (FIG. 5G) Lung metastasis: cells expanded for 8 passages after cessation of treatment as described in (C) were transformed with RAS; 1.0×10^5 cells were injected into the mammary fat pads of mice; GFP-labeled metastases on the surface of the lungs were quantified; *control vs. all other groups, p<0.05, n=5 mice/group. […]
Fluorescent activated cell sorting (FACS) and flow cytometry. […] Samples were sorted on a BD FACSAria SORP and analyzed on a BD LSRII using BD FACSDiva Software (BD Biosciences).

HMLE^24+ cells [2] = assay: RT-PCR / immunoblot of EMT markers and EMT-TFs in HMLE^24+ cells
Experimental: as §1
Immunoblots. Protein was extracted with RIPA lysis buffer and concentration determined by the Lowry assay (Biorad). […]

HMLE^24+ cells [3] = assay: Mammosphere assay, HMLE^24+ cells after 14 day treatment
Experimental: as §1, with “passages. Shown are PBS-treated control HMLE^24+-shGFP and HMLE^24+-shSFRP1 cells, two HMLE^24+-shGFP cultures treated with TGF-beta 1 (TGF-β-a and -b), two HMLE^24+-shSFRP1 cultures treated with the iEMT-cocktail (iEMT-a and -b).” for “passages.”

[4] = tested on: Smad transcriptional activity; assay: Smad luciferase reporter assay (SBE4-luc), HMLE^24+ cells; conditions: HMLE^24+ cells treated with TGF-beta (5 ng/ml, 30 min)
Excerpt: FIGS. 12A-12F. Concomitant stimulation of Wnt and TGF-beta pathways allows HMLE^24+ cells to enter into a mesenchymal and SC-like state. (FIG. 12A) RT-PCR: SFRP1, L32 was loading control, n=3; SFRP1 mRNA levels in HMLE^24+ stably expressing two hairpin-encoding vectors (shSFRP1a and -b) compared cells expressing a control hairpin targeting GFP (shGFP), HMLE^24+-shSFRP1b were used for iEMT experiments. (FIG. 12B) Flow cytometry: Expression of CD44 and CD24 cell-surface markers in HMLE, HMLE^24+-shGFP and -shSFRP1 cells. […] (FIG. 12F) Growth curves: proliferation of indicated cell lines was monitored by the MTS assay for 3 days, 8 passages after cessation of 14 day treatment as described in (D), n=12.
Luciferase assays. […] Lysates were collected 24-48 hr after transfection, and firefly and Renilla luciferase activities were measured with a Dual-Luciferase Reporter System (Promega).

## TGF-beta 1: recombinant TGF-beta 1 protein, used at 5 ng/ml
HMLE^24+ cells [1]
  proportion of CD44high/CD24low-negative cells: 1.5%
HMLE^24+ cells [2]; 3 days treatment
  induction of N-Cadherin, Zeb1 or Zeb2: did not result in a significant induction
HMLE^24+ cells [2]; 14 day treatment, then expanded without stimulation
  E-/N-Cadherin expression: marginal upregulation of N-Cadherin
HMLE^24+ cells [3]
  increase in mammosphere formation vs untreated control cells: 10 fold
[4]
  upregulation of Smad-reporter activity: 1.5 fold
